Assay results taken from US20260115177A1, “MEDICINAL PRODUCTS AND METHODS FOR THE ALLEVIATION OF CANCER IMMUNOTHERA-PY-ASSOCIATED CYTOKINE RELEASE SYNDROME” (POOLBEG PHARMA (UK) LIMITED, priority 2023, published 2026).

Key:
Type in all cases: cell-based, human
HUVEC endothelial cells [1] = assay: IL-6 and IL-8 ELISA of HUVEC endothelial cells treated with sCAR; settings: sCAR stimulation, 24 hours; concentrations of Table 2
Method: (§1) In like manner and also in Example 3 below, sCAR (or smCAR) is added to endothelial (HUVEC) cells, available from the American Type Culture Collection, and using an equivalent protocol to the treatment of THP-1 cells (but with individually optimised conditions, such as the concentration of sCAR used), following which IL-6 release and IL-8 release are observed. Pro-inflammatory cytokines IL-6 and IL-8 are measured using an enzyme-linked immunosorbent assay (ELISA) and IL-6, ICAM1 and VCAM1 are measured by quantitative PCR (QPCR, for which a kit is suitably obtainable from Thermo Fisher Scientific of Kingfisher Dr, Swindon SN3 5BZ, UK).
(§2) sCAR (or smCAR), produced as described in Example 1 above, is added to a monoculture of HUVEC endothelial cells in the presence of UR-13870, Ralimetinib or Acumapimod at each of the concentrations shown in Table 2 above, at 37° C., 5% CO2 and a suitably humid environment for 24 hours.
Supernatant levels of IL-6 and IL-8 from the HUVEC endothelial cell monoculture with sCAR (or smCAR) are determined by ELISA.

CAR T cells = assay: T cell exhaustion markers TIM3 and LAG3 on CAR T cells in co-culture (flow cytometry); settings: CAR T:tumour cell co-culture, concentrations of Table 2
Method: UR-13870, Ralimetinib or Acumapimod are each added to a culture of CD19+ cancer cells (using a micropipette to transfer the correct volume to achieve the desired final concentration in Table 2).
CAR T cells are then added to the same culture 5-10 minutes later. In brief, CAR T cell concentrations per ml are determined and used to aliquot the desired number of CAR T cells into the culture to achieve the described 1:1 CAR T to cancer cell ratio.
The co-culture containing CAR T cells and tumour cells is swirled gently to ensure homogenous dispersion of cells throughout the vessel. The resultant co-culture is incubated for 24 to 96 hours in a closed incubator at 37° C. with 5% CO2 and a suitably humid atmosphere.
Both T cell surface markers T cell immunoglobulin and mucin domain-containing protein 3 (TIM3/CD366) and Lymphocyte Activation Gene 3 (LAG3/CD223) are associated with T cell exhaustion and disease progression during immunotherapy treatment. Advantageously, all of UR-13870, Ralimetinib and Acumapimod reduce both the number of TIM3+ CAR T cells, and the number of LAG3+ CAR T cells. […] For LAG3+, the results for Ralimetinib at a 5 μM concentration appear to have been affected by experimental failure, and these may be disregarded accordingly.

HUVEC endothelial cells [2] = assay: QPCR of ICAM1 in HUVEC cells treated with sCART-mono supernatant; settings: 24 hours
Method: With reference to FIG. 13 of the accompanying drawings, a co-culture (100) is established using a standard cell culture transwell dish, including a first compartment (101), containing CAR T cells and cancer cells (at a 1:1 ratio), which is separated from a second compartment (102), containing monocytes, by a semi-permeable membrane (103) composed of tissue-culture treated polyethylene terephthalate with a 0.4 μm pore size.
Each of UR-13870, Acumapimod and Ralimetinib are administered to the co-culture following a procedure analogous to that described in Example 2 above (at the concentrations as shown in Table 2 above).
The co-culture is incubated at 37° C., 5% CO2 and a suitably humid environment for 24 hours. On completion, the transwell insert is removed and supernatant is isolated. Cells and debris are removed from the supernatant by exposing the container to a centripetal force of 400 G and gently pipetting the supernatant into a new container without disturbing the cell pellet at the bottom of the previous container.
Prior to adding the p38 inhibitors and sCART-mono, endothelial cells are incubated overnight at 37° C. and 5% CO2 in a suitably humid environment to allow the cells to adhere fully to the tissue culture dish.
Reduced endothelial cell activation is evidenced by reduced ICAM1 expression in response to treatment with UR-13870, Acumapimod and Ralimetinib.

HUVEC endothelial cells [3] = assay: QPCR of VCAM1, ICAM1 and IL-6 in HUVEC cells treated with sCAR; settings: 24 hours
Method: as §1, §2

**Q.** Which results are given for `OCCCn1cc2c(-c3ccc(F)cc3)c(-c3ccncc3)c(-c3ccc(F)cc3)nc2n1` [UR-13870, 6-bis(4-fluorophenyl)-5-(4-pyridinyl)-2Hpyrazolo[3,4-b]pyridine-2-propanol]?
**A.** IL-6 secretion by HUVEC cells (HUVEC endothelial cells [1]): significantly reduce; IL-8 supernatant level, HUVEC cells (HUVEC endothelial cells [1]): reduced; number of TIM3+ CAR T cells (CAR T cells): reduce; number of LAG3+ CAR T cells (CAR T cells; Ralimetinib 5 μM results to be disregarded): reduce; ICAM1 expression (endothelial cell activation) (HUVEC endothelial cells [2]): reduced; ICAM1 mRNA levels (HUVEC endothelial cells [3]): significantly reduce; IL-6 mRNA levels (HUVEC endothelial cells [3]): significantly reduce; VCAM1 mRNA levels (HUVEC endothelial cells [3]): reduced, albeit non-significantly
